Measured values published in US20140037792A1, “Isolated microorganism strains Lactobacillus plantarum MCC1 DSM 23881 and Lactobacillus gasseri MCC2 DSM 23882 and their use” (Bio-Competence Centre of Healthy Dairy Products, priority 2011, published 2014).
≈ marks a conversion by molar mass, not a printed value. Like-named read-outs stand apart in the source and are kept apart here.

Legend:
L. plantarum = settings: FEEDAP Panel EFSA 2008; cited from earlier work
Lactobacillus spp = settings: European Commission 2002; cited from earlier work
[1] = tested on: L. plantarum MCC1 DSM 23881; experiment: Antibiotic susceptibility, E-test; type: cell-based; settings: for resistance of L. plantarum MCC1 to the antibiotic: according to European Commission indicators for lactobacilli
Procedure: (§1) Methodology: The susceptibility of L. plantarum MCC1 and L. gasseri MCC2 to antibiotics was tested with the help of E-test (AB Biodisk, Solna). The minimum inhibitory concentration was determined according to the epidemiological breakpoints recommended by the European Commission.

[2] = tested on: L. gasseri MCC2 DSM 23882; experiment: Antibiotic susceptibility, E-test; type: cell-based
Procedure: as §1

[3] = tested on: Obligately homofermentative lactobacilli (OHOL); settings: FEEDAP Panel EFSA 2008; cited from earlier work
[4] = Lactiplantibacillus plantarum, DSM23881, read-out: MIC
[5] = Lactobacillus gasseri, DSM23882, read-out: MIC
[6] = Lactiplantibacillus plantarum, DSM23881
[7] = E-test, against L. plantarum MCC1
[8] = E-test, against L. gasseri MCC2

Question: Which results are given for `CC1(C)S[C@@H]2[C@H](NC(=O)[C@H](N)c3ccccc3)C(=O)N2[C@H]1C(=O)O` [Ampicillin]?
Answer: MIC breakpoint for resistance, L. plantarum (L. plantarum): 2 µg/mL; MIC breakpoint for resistance, Lactobacillus spp (Lactobacillus spp): 2 µg/mL; MIC [1, 4]: 0.094 µg/mL (≈ 0.269 µM); MIC [2, 5]: 0.031 µg/mL (≈ 0.0887 µM); MIC breakpoint for resistance, OHOL [3]: 1 µg/mL

Question: Which “MIC breakpoint for resistance, Lactobacillus spp” value (Lactobacillus spp) does the source give for `CO[C@@]1(NC(=O)Cc2cccs2)C(=O)N2C(C(=O)O)=C(COC(N)=O)CS[C@@H]21` [Cefoxitin] here?
Answer: Its value is 4 µg/mL.

Question: And the MIC [1, 4]?
Answer: Its MIC is 256 µg/mL (≈ 599 µM).

Question: What about the “resistance of L. plantarum MCC1 to the antibiotic” value [1] of the same molecule?
Answer: Its value is “resistant”.

Question: What about the MIC [2, 5] of the same molecule?
Answer: The MIC was 1.5 µg/mL (≈ 3.51 µM).

Question: What does the source list for `CO/N=C(\C(=O)N[C@@H]1C(=O)N2C(C(=O)O)=C(COC(N)=O)CS[C@H]12)c1ccco1` [Cefuroxim]?
Answer: MIC [1, 4]: 0.5 µg/mL (≈ 1.18 µM); MIC [2, 5]: 0.19 µg/mL (≈ 0.448 µM)

Question: For `O=C(N[C@H](CO)[C@H](O)c1ccc([N+](=O)[O-])cc1)C(Cl)Cl` [Chloramphenicol], which “MIC breakpoint for resistance, L. plantarum” value (“MIC breakpoint … L. plantarum” for short) (L. plantarum) is on record?
Answer: The value was 8 µg/mL.

Question: And the “MIC breakpoint for resistance, Lactobacillus spp” value (Lactobacillus spp)?
Answer: Its value is 16 µg/mL.

Question: What about the MIC [1, 4] of the same molecule?
Answer: The MIC was 1.5 µg/mL (≈ 4.64 µM).

Question: And the MIC [2, 5]?
Answer: The MIC was 0.75 µg/mL (≈ 2.32 µM).

Question: And the “MIC breakpoint for resistance, OHOL” value [3]?
Answer: Its value is 4 µg/mL.

Question: With `O=C(O)c1cn(C2CC2)c2cc(N3CCNCC3)c(F)cc2c1=O` [Ciprofloxacin] as the molecule, how does the “MIC breakpoint for resistance, Lactobacillus spp” value (Lactobacillus spp) read?
Answer: The value was 4 µg/mL.

Question: What about the MIC [1, 4] of the same molecule?
Answer: Its MIC is 0.38 µg/mL (≈ 1.15 µM).

Question: And the MIC [2, 5]?
Answer: The MIC was over 32 µg/mL.

Question: With `CCC[C@@H]1C[C@@H](C(=O)N[C@@H]([C@H]2O[C@H](SC)[C@H](O)[C@@H](O)[C@H]2O)[C@H](C)Cl)N(C)C1` [Clindamycin] as the molecule, how does the MIC [1, 4] read?
Answer: The MIC was 0.064 µg/mL (≈ 0.151 µM).

Question: For `CC[C@H]1OC(=O)[C@H](C)[C@@H](O[C@H]2C[C@@](C)(OC)[C@@H](O)[C@H](C)O2)[C@H](C)[C@@H](O[C@@H]2O[C@H](C)C[C@H](N(C)C)[C@H]2O)[C@](C)(O)C[C@@H](C)C(=O)[C@H](C)[C@@H](O)[C@]1(C)O` [Erythromycin], which “MIC breakpoint … L. plantarum” value (L. plantarum) is on record?
Answer: The value was 1 µg/mL.

Question: What about the “MIC breakpoint for resistance, Lactobacillus spp” value (Lactobacillus spp) of the same molecule?
Answer: The value was 4 µg/mL.

Question: And the MIC [1, 6]?
Answer: Its MIC is 0.125 µg/mL (≈ 0.17 µM).

Question: What about the MIC [2, 5] of the same molecule?
Answer: The MIC was 0.047 µg/mL (≈ 0.064 µM).

Question: What about the “MIC breakpoint for resistance, OHOL” value [3] of the same molecule?
Answer: Its value is 1 µg/mL.

Question: With `C[C@@H](O)[C@H]1C(=O)N2C(C(=O)O)=C(SCCN=CN)C[C@H]12` [Imipenem] as the molecule, how does the MIC [2, 5] read?
Answer: Its MIC is 0.047 µg/mL (≈ 0.157 µM).

Question: Which “MIC breakpoint for resistance, Lactobacillus spp” value (Lactobacillus spp) does the source give for `CO[C@H]1/C=C/O[C@@]2(C)Oc3c(C)c(O)c4c(O)c(c(/C=N/N5CCN(C)CC5)c(O)c4c3C2=O)NC(=O)/C(C)=C\C=C\[C@H](C)[C@H](O)[C@@H](C)[C@@H](O)[C@@H](C)[C@H](OC(C)=O)[C@@H]1C` [Rifampin] here?
Answer: Its value is 32 µg/mL.

Question: And the MIC [2, 5]?
Answer: Its MIC is 0.064 µg/mL (≈ 0.0778 µM).

Question: For `[H]/N=C(/N)N[C@H]1[C@H](O)[C@@H](O)[C@H](O[C@@H]2O[C@@H](C)[C@](O)(C=O)[C@H]2O[C@@H]2O[C@@H](CO)[C@H](O)[C@@H](O)[C@@H]2NC)[C@@H](N/C(N)=N\[H])[C@@H]1O` [Streptomycin], which “MIC breakpoint for resistance, Lactobacillus spp” value (Lactobacillus spp) is on record?
Answer: The value was 16 µg/mL.

Question: And the MIC [1, 4]?
Answer: Its MIC is 16 µg/mL (≈ 27.5 µM).

Question: What about the “MIC breakpoint for resistance, OHOL” value [3] of the same molecule?
Answer: Its value is 16 µg/mL.

Question: With `CN(C)[C@@H]1C(O)=C(C(N)=O)C(=O)[C@@]2(O)C(O)=C3C(=O)c4c(O)cccc4[C@@](C)(O)[C@H]3C[C@@H]12` [Tetracycline] as the molecule, how does the MIC [1, 4] read?
Answer: The MIC was 2 µg/mL (≈ 4.5 µM).

Question: What about the MIC [2, 5] of the same molecule?
Answer: The MIC was 0.5 µg/mL (≈ 1.13 µM).

Question: With `CN[C@H](CC(C)C)C(=O)N[C@H]1C(=O)N[C@@H](CC(N)=O)C(=O)N[C@H]2C(=O)N[C@H]3C(=O)N[C@H](C(=O)N[C@H](C(=O)O)c4cc(O)cc(O)c4-c4cc3ccc4O)[C@H](O)c3ccc(c(Cl)c3)Oc3cc2cc(c3O[C@@H]2O[C@H](CO)[C@@H](O)[C@H](O)[C@H]2O[C@H]2C[C@](C)(N)[C@H](O)[C@H](C)O2)Oc2ccc(cc2Cl)[C@H]1O` [Vancomycin] as the molecule, how does the “MIC breakpoint for resistance, Lactobacillus spp” value (Lactobacillus spp) read?
Answer: Its value is 4 µg/mL.

Question: And the MIC [1, 6]?
Answer: Its MIC is 256 µg/mL (≈ 177 µM).

Question: And the “resistance of L. plantarum MCC1 to the antibiotic” value [1]?
Answer: The value was “resistant”.

Question: And the MIC ([2]; Lactobacillus gasseri, DSM23882)?
Answer: Its MIC is 0.75 µg/mL (≈ 0.518 µM).

Question: And the “MIC breakpoint for resistance, OHOL” value [3]?
Answer: Its value is 2 µg/mL.

Question: With Gentamicin as the molecule, how does the “MIC breakpoint … L. plantarum” value (L. plantarum) read?
Answer: Its value is 16 µg/mL.

Question: What about the “MIC breakpoint for resistance, Lactobacillus spp” value (Lactobacillus spp) of the same molecule?
Answer: The value was 1 µg/mL.

Question: And the MIC [1, 7]?
Answer: Its MIC is 1.5 µg/mL.

Question: And the MIC [2, 8]?
Answer: Its MIC is 2 µg/mL.

Question: What about the “MIC breakpoint for resistance, OHOL” value [3] of the same molecule?
Answer: The value was 16 µg/mL.

Question: Which “MIC breakpoint … L. plantarum” value (L. plantarum) does the source give for Quinupristin/dalfopristin here?
Answer: Its value is 4 µg/mL.

Question: What about the “MIC breakpoint for resistance, Lactobacillus spp” value (Lactobacillus spp) of the same molecule?
Answer: The value was 4 µg/mL.

Question: And the MIC [1, 7]?
Answer: Its MIC is 1 µg/mL.

Question: What about the “MIC breakpoint for resistance, OHOL” value [3] of the same molecule?
Answer: The value was 4 µg/mL.

Question: What does the source list for Trim/sulfam?
Answer: MIC breakpoint for resistance, Lactobacillus spp (Lactobacillus spp): 32 µg/mL; MIC [2, 8]: >32 µg/mL
